Measurements from ChEMBL document CHEMBL3112480, “γ-Alkylidene-γ-lactones and isobutylpyrrol-2(5H)-ones analogues to rubrolides as inhibitors of biofilm formation by gram-positive and gram-negative bacteria” (Bioorg Med Chem Lett, 2014).
≈ marks a conversion by molar mass, not a printed value. One block for each molecule: values may come before it.

What was measured:
Streptococcus mutans [1] = experiment: Antibacterial activity against Streptococcus mutans ATCC 25175 assessed as effect on planktonic growth at 21.9 ug/ml after 20 hrs relative to control; type: functional
Streptococcus mutans [2] = experiment: Antibacterial activity against Streptococcus mutans ATCC 25175 assessed as effect on planktonic growth at 43.8 ug/ml after 20 hrs relative to control; type: functional
Streptococcus mutans [3] = experiment: Antibacterial activity against Streptococcus mutans ATCC 25175 assessed as effect on planktonic growth at 87.5 ug/ml after 20 hrs relative to control; type: functional
Staphylococcus aureus [4] = experiment: Antibacterial activity against Staphylococcus aureus ATCC 25923 assessed as effect on planktonic growth at 0.17 ug/ml after 20 hrs relative to control; type: functional
Staphylococcus aureus [5] = experiment: Antibacterial activity against Staphylococcus aureus ATCC 25923 assessed as effect on planktonic growth at 0.34 ug/ml after 20 hrs relative to control; type: functional
Staphylococcus aureus [6] = experiment: Antibacterial activity against Staphylococcus aureus ATCC 25923 assessed as effect on planktonic growth at 0.68 ug/ml after 20 hrs relative to control; type: functional
Staphylococcus aureus [7] = experiment: Antibacterial activity against Staphylococcus aureus ATCC 25923 assessed as effect on planktonic growth at 1.37 ug/ml after 20 hrs relative to control; type: functional
Staphylococcus aureus [8] = experiment: Antibacterial activity against Staphylococcus aureus ATCC 25923 assessed as effect on planktonic growth at 5.5 ug/ml after 20 hrs relative to control; type: functional
Staphylococcus aureus [9] = experiment: Antibacterial activity against Staphylococcus aureus ATCC 25923 assessed as effect on planktonic growth at 2.73 ug/ml after 20 hrs relative to control; type: functional
Staphylococcus aureus [10] = experiment: Antibacterial activity against Staphylococcus aureus ATCC 25923 assessed as effect on planktonic growth at 10.9 ug/ml after 20 hrs relative to control; type: functional
Staphylococcus aureus [11] = experiment: Antibacterial activity against Staphylococcus aureus ATCC 25923 assessed as effect on planktonic growth at 21.9 ug/ml after 20 hrs relative to control; type: functional
Staphylococcus aureus [12] = experiment: Antibacterial activity against Staphylococcus aureus ATCC 25923 assessed as effect on planktonic growth at 43.8 ug/ml after 20 hrs relative to control; type: functional
Staphylococcus aureus [13] = experiment: Antibacterial activity against Staphylococcus aureus ATCC 25923 assessed as effect on planktonic growth at 87.5 ug/ml after 20 hrs relative to control; type: functional
Pseudomonas aeruginosa [14] = experiment: Antibacterial activity against Pseudomonas aeruginosa ATCC 27853 assessed as effect on planktonic growth at 0.17 ug/ml after 20 hrs relative to control; type: functional
Pseudomonas aeruginosa [15] = experiment: Antibacterial activity against Pseudomonas aeruginosa ATCC 27853 assessed as effect on planktonic growth at 0.34 ug/ml after 20 hrs relative to control; type: functional
Pseudomonas aeruginosa [16] = experiment: Antibacterial activity against Pseudomonas aeruginosa ATCC 27853 assessed as effect on planktonic growth at 0.68 ug/ml after 20 hrs relative to control; type: functional
Pseudomonas aeruginosa [17] = experiment: Antibacterial activity against Pseudomonas aeruginosa ATCC 27853 assessed as effect on planktonic growth at 1.37 ug/ml after 20 hrs relative to control; type: functional
Pseudomonas aeruginosa [18] = experiment: Antibacterial activity against Pseudomonas aeruginosa ATCC 27853 assessed as effect on planktonic growth at 2.73 ug/ml after 20 hrs relative to control; type: functional
Pseudomonas aeruginosa [19] = experiment: Antibacterial activity against Pseudomonas aeruginosa ATCC 27853 assessed as effect on planktonic growth at 5.5 ug/ml after 20 hrs relative to control; type: functional
Pseudomonas aeruginosa [20] = experiment: Antibacterial activity against Pseudomonas aeruginosa ATCC 27853 assessed as effect on planktonic growth at 10.9 ug/ml after 20 hrs relative to control; type: functional
Pseudomonas aeruginosa [21] = experiment: Antibacterial activity against Pseudomonas aeruginosa ATCC 27853 assessed as effect on planktonic growth at 21.9 ug/ml after 20 hrs relative to control; type: functional
Pseudomonas aeruginosa [22] = experiment: Antibacterial activity against Pseudomonas aeruginosa ATCC 27853 assessed as effect on planktonic growth at 43.8 ug/ml after 20 hrs relative to control; type: functional
Pseudomonas aeruginosa [23] = experiment: Antibacterial activity against Pseudomonas aeruginosa ATCC 27853 assessed as effect on planktonic growth at 87.5 ug/ml after 20 hrs relative to control; type: functional
[24] = tested on: Staphylococcus epidermidis; experiment: Antibacterial activity against Staphylococcus epidermidis ATCC 35547 assessed as effect on planktonic growth at 0.17 ug/ml after 20 hrs relative to control; type: functional
[25] = tested on: Staphylococcus epidermidis; experiment: Antibacterial activity against Staphylococcus epidermidis ATCC 35547 assessed as effect on planktonic growth at 0.34 ug/ml after 20 hrs relative to control; type: functional
[26] = tested on: Staphylococcus epidermidis; experiment: Antibacterial activity against Staphylococcus epidermidis ATCC 35547 assessed as effect on planktonic growth at 0.68 ug/ml after 20 hrs relative to control; type: functional
[27] = tested on: Staphylococcus epidermidis; experiment: Antibacterial activity against Staphylococcus epidermidis ATCC 35547 assessed as effect on planktonic growth at 1.37 ug/ml after 20 hrs relative to control; type: functional
[28] = tested on: Staphylococcus epidermidis; experiment: Antibacterial activity against Staphylococcus epidermidis ATCC 35547 assessed as effect on planktonic growth at 2.73 ug/ml after 20 hrs relative to control; type: functional
[29] = tested on: Staphylococcus epidermidis; experiment: Antibacterial activity against Staphylococcus epidermidis ATCC 35547 assessed as effect on planktonic growth at 5.5 ug/ml after 20 hrs relative to control; type: functional
[30] = tested on: Staphylococcus epidermidis; experiment: Antibacterial activity against Staphylococcus epidermidis ATCC 35547 assessed as effect on planktonic growth at 10.9 ug/ml after 20 hrs relative to control; type: functional
[31] = tested on: Staphylococcus epidermidis; experiment: Antibacterial activity against Staphylococcus epidermidis ATCC 35547 assessed as effect on planktonic growth at 21.9 ug/ml after 20 hrs relative to control; type: functional
[32] = tested on: Staphylococcus epidermidis; experiment: Antibacterial activity against Staphylococcus epidermidis ATCC 35547 assessed as effect on planktonic growth at 43.8 ug/ml after 20 hrs relative to control; type: functional
[33] = tested on: Staphylococcus epidermidis; experiment: Antibacterial activity against Staphylococcus epidermidis ATCC 35547 assessed as effect on planktonic growth at 87.5 ug/ml after 20 hrs relative to control; type: functional
Pseudomonas aeruginosa [34] = experiment: Antibacterial activity against Pseudomonas aeruginosa ATCC 27853 assessed as inhibition of biofilm formation after 20 hrs by crystal-violet staining method; type: functional, organism-based; details: for IC50: ATCC 27853, 20 h
[35] = tested on: Staphylococcus epidermidis; experiment: Antibacterial activity against Staphylococcus epidermidis ATCC 35547 assessed as inhibition of biofilm formation after 20 hrs by crystal-violet staining method; type: functional, organism-based; details: for IC50: ATCC 35547, 20 h
Streptococcus mutans [36] = experiment: Antibacterial activity against Streptococcus mutans ATCC 25175 assessed as effect on planktonic growth at 0.17 ug/ml after 20 hrs relative to control; type: functional
Streptococcus mutans [37] = experiment: Antibacterial activity against Streptococcus mutans ATCC 25175 assessed as effect on planktonic growth at 0.34 ug/ml after 20 hrs relative to control; type: functional
Streptococcus mutans [38] = experiment: Antibacterial activity against Streptococcus mutans ATCC 25175 assessed as effect on planktonic growth at 0.68 ug/ml after 20 hrs relative to control; type: functional
Streptococcus mutans [39] = experiment: Antibacterial activity against Streptococcus mutans ATCC 25175 assessed as effect on planktonic growth at 1.37 ug/ml after 20 hrs relative to control; type: functional
Streptococcus mutans [40] = experiment: Antibacterial activity against Streptococcus mutans ATCC 25175 assessed as effect on planktonic growth at 2.73 ug/ml after 20 hrs relative to control; type: functional
Streptococcus mutans [41] = experiment: Antibacterial activity against Streptococcus mutans ATCC 25175 assessed as effect on planktonic growth at 5.5 ug/ml after 20 hrs relative to control; type: functional
Streptococcus mutans [42] = experiment: Antibacterial activity against Streptococcus mutans ATCC 25175 assessed as effect on planktonic growth at 10.9 ug/ml after 20 hrs relative to control; type: functional

- IC50 (Pseudomonas aeruginosa [34]): > 87.5 µg/mL
- IC50 [35]: 46.7 µg/mL (≈ 88.8 µM)
SMILES: COc1ccc(Br)cc1C1=C(Br)C(=O)N(CC(C)C)/C1=C/c1cccc(Cl)c1
- Activity (Streptococcus mutans [1]): -7.5%
- Activity (Streptococcus mutans [2]): 2.5%
- Activity (Streptococcus mutans [3]): -7.3%
- Activity (Staphylococcus aureus [4]): -18.7%
- Activity (Staphylococcus aureus [5]): -17.1%
- Activity (Staphylococcus aureus [6]): -19.6%
- Activity (Staphylococcus aureus [7]): -17.8%
- Activity (Staphylococcus aureus [8]): -16%
- Activity (Staphylococcus aureus [9]): -14%
- Activity (Staphylococcus aureus [10]): -11.9%
- Activity (Staphylococcus aureus [11]): -13.1%
- Activity (Staphylococcus aureus [12]): -5.2%
- Activity (Staphylococcus aureus [13]): 12.8%
- Activity (Pseudomonas aeruginosa [14]): 1.8%
- Activity (Pseudomonas aeruginosa [15]): -3.3%
- Activity (Pseudomonas aeruginosa [16]): 3.4%
- Activity (Pseudomonas aeruginosa [17]): 5%
- Activity (Pseudomonas aeruginosa [18]): 4.7%
- Activity (Pseudomonas aeruginosa [19]): -4%
- Activity (Pseudomonas aeruginosa [20]): -7%
- Activity (Pseudomonas aeruginosa [21]): -4.5%
- Activity (Pseudomonas aeruginosa [22]): -3.2%
- Activity (Pseudomonas aeruginosa [23]): 15.5%
- Activity [24]: 2.1%
- Activity [25]: 4.9%
- Activity [26]: 4.8%
- Activity [27]: 1%
- Activity [28]: 11.4%
- Activity [29]: 21.1%
- Activity [30]: 10.8%
- Activity [31]: 27.7%
- Activity [32]: 56.1%
- Activity [33]: 70.2%
- inhibition (Pseudomonas aeruginosa [34]): Dose-dependent effect
- inhibition [35]: Dose-dependent effect
- Activity (Streptococcus mutans [36]): 6%
- Activity (Streptococcus mutans [37]): 7%
- Activity (Streptococcus mutans [38]): -6.5%
- Activity (Streptococcus mutans [39]): 15.3%
- Activity (Streptococcus mutans [40]): 12.6%
- Activity (Streptococcus mutans [41]): 2.8%
- Activity (Streptococcus mutans [42]): 8.3%

- IC50 (Pseudomonas aeruginosa [34]): > 87.5 µg/mL
- IC50 [35]: 67.5 µg/mL (≈ 118 µM)
SMILES: COc1ccc(Br)cc1C1=C(Br)C(=O)N(CC(C)C)/C1=C\c1ccc(Br)cc1
- Activity (Streptococcus mutans [1]): -14.6%
- Activity (Streptococcus mutans [2]): -31.4%
- Activity (Streptococcus mutans [3]): -15.8%
- Activity (Staphylococcus aureus [4]): -3.9%
- Activity (Staphylococcus aureus [5]): 0.3%
- Activity (Staphylococcus aureus [6]): -0.5%
- Activity (Staphylococcus aureus [7]): -0.5%
- Activity (Staphylococcus aureus [8]): -2.1%
- Activity (Staphylococcus aureus [9]): -2.4%
- Activity (Staphylococcus aureus [10]): 1%
- Activity (Staphylococcus aureus [11]): 0.8%
- Activity (Staphylococcus aureus [12]): 5.5%
- Activity (Staphylococcus aureus [13]): 6%
- Activity (Pseudomonas aeruginosa [14]): 4.1%
- Activity (Pseudomonas aeruginosa [15]): 0.3%
- Activity (Pseudomonas aeruginosa [16]): -0.2%
- Activity (Pseudomonas aeruginosa [17]): 1%
- Activity (Pseudomonas aeruginosa [18]): 0.8%
- Activity (Pseudomonas aeruginosa [19]): 0.6%
- Activity (Pseudomonas aeruginosa [20]): -2.6%
- Activity (Pseudomonas aeruginosa [21]): -1.3%
- Activity (Pseudomonas aeruginosa [22]): 3.4%
- Activity (Pseudomonas aeruginosa [23]): 12.6%
- Activity [24]: 3.3%
- Activity [25]: 14.1%
- Activity [26]: 10%
- Activity [27]: 5.7%
- Activity [28]: 11.2%
- Activity [29]: 0.9%
- Activity [30]: 12.3%
- Activity [31]: 32.6%
- Activity [32]: 78.7%
- Activity [33]: 88.4%
- inhibition (Pseudomonas aeruginosa [34]): Dose-dependent effect
- inhibition [35]: Dose-dependent effect
- Activity (Streptococcus mutans [36]): 6%
- Activity (Streptococcus mutans [37]): -0.3%
- Activity (Streptococcus mutans [38]): 5.8%
- Activity (Streptococcus mutans [39]): 8.3%
- Activity (Streptococcus mutans [40]): -5.3%
- Activity (Streptococcus mutans [41]): -3.3%
- Activity (Streptococcus mutans [42]): -5%
